Measured values: PubChem BioAssay AID248 (DTP/NCI, 2004)
“And” between values parts separate entries of the source, which are not always exact repeats. Equal values may be shown once. Inconclusive results and toxic doses are left out.

Test system: L1210 leukemia ip in BDF1 mice, survival T/C
Experiment: NCI In Vivo Anticancer Drug Screen. Data for tumor model L1210 Leukemia (intraperitoneal) in B6D2F1 (BDF1) mice
Conditions: endpoint: mean survival time, higher = longer survival
Summary of the method: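 Read-out is survival time, reported as the treated-group measurement over the vehicle-control measurement.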

[1] = dose: 12.5 mg/kg/injection, schedule: Q04DX003 (ip), vehicle: saline
[2] = dose: 100.0 mg/kg/injection, schedule: Q01DX001 (ip), vehicle: Klucel (hydroxypropylcellulose) (HPC)
[3] = dose: 100.0 mg/kg/injection, schedule: Q04DX003 (ip), vehicle: Klucel (hydroxypropylcellulose) (HPC)
[4] = dose: 200.0 mg/kg/injection, schedule: Q01DX001 (ip), vehicle: Klucel (hydroxypropylcellulose) (HPC)
[5] = dose: 200.0 mg/kg/injection, schedule: Q04DX003 (ip), vehicle: Klucel (hydroxypropylcellulose) (HPC)
[6] = dose: 400.0 mg/kg/injection, schedule: Q01DX001 (ip), vehicle: Klucel (hydroxypropylcellulose) (HPC)
[7] = dose: 400.0 mg/kg/injection, schedule: Q04DX003 (ip), vehicle: Klucel (hydroxypropylcellulose) (HPC)
[8] = dose: 100.0 mg/kg/injection, schedule: Q01DX001 (ip), vehicle: saline
[9] = dose: 200.0 mg/kg/injection, schedule: Q01DX001 (ip), vehicle: saline
[10] = dose: 400.0 mg/kg/injection, schedule: Q01DX001 (ip), vehicle: saline
[11] = dose: 100.0 mg/kg/injection, schedule: Q01DX009 (ip), vehicle: saline with Tween-80
[12] = dose: 400.0 mg/kg/injection, schedule: Q01DX009 (ip), vehicle: saline with Tween-80
[13] = dose: 25.0 mg/kg/injection, schedule: Q04DX003 (ip), vehicle: Klucel (hydroxypropylcellulose) (HPC)
[14] = dose: 50.0 mg/kg/injection, schedule: Q04DX003 (ip), vehicle: Klucel (hydroxypropylcellulose) (HPC)
[15] = dose: 100.0 mg/kg/injection, schedule: Q01DX001 (ip), vehicle: carboxymethylcellulose (CMC)
[16] = dose: 200.0 mg/kg/injection, schedule: Q01DX001 (ip), vehicle: carboxymethylcellulose (CMC)
[17] = dose: 400.0 mg/kg/injection, schedule: Q01DX001 (ip), vehicle: carboxymethylcellulose (CMC)
[18] = dose: 100.0 mg/kg/injection, schedule: Q01DX009 (ip), vehicle: Klucel (hydroxypropylcellulose) (HPC)
[19] = dose: 200.0 mg/kg/injection, schedule: Q01DX009 (ip), vehicle: Klucel (hydroxypropylcellulose) (HPC)
[20] = dose: 400.0 mg/kg/injection, schedule: Q01DX009 (ip), vehicle: Klucel (hydroxypropylcellulose) (HPC)
[21] = dose: 100.0 mg/kg/injection, schedule: Q01DX009 (ip), vehicle: carboxymethylcellulose (CMC)
[22] = dose: 200.0 mg/kg/injection, schedule: Q01DX009 (ip), vehicle: carboxymethylcellulose (CMC)
[23] = dose: 25.0 mg/kg/injection, schedule: Q01DX009 (ip), vehicle: Klucel (hydroxypropylcellulose) (HPC)
[24] = dose: 50.0 mg/kg/injection, schedule: Q01DX009 (ip), vehicle: Klucel (hydroxypropylcellulose) (HPC)

With `Cc1nc2ccc(O)cc2cc1CBr` the T/C (dose: 6.25 mg/kg/injection, schedule: Q01DX009 (ip), vehicle: saline) was 112 % of control, the T/C (dose: 12.5 mg/kg/injection, schedule: Q01DX009 (ip), vehicle: saline) was 104 % of control and the T/C [1] was 107 % of control. The T/C (dose: 25.0 mg/kg/injection, schedule: Q01DX009 (ip), vehicle: saline) was 106 % of control, the T/C (dose: 25.0 mg/kg/injection, schedule: Q04DX003 (ip), vehicle: saline) was 115 % of control and the T/C (dose: 50.0 mg/kg/injection, schedule: Q04DX003 (ip), vehicle: saline) was 97 % of control.

For `CCOC(=O)c1[nH]c(C)c(C(=O)OCC)c1-c1ccc(OC)cc1`, the T/C [2] was 100 % of control, the T/C [3] was 96 % of control and the T/C [4] was 93 % of control. For the same molecule, the T/C [5] was 108 % of control, the T/C [6] was 98 % of control and the T/C [7] was 96 % of control.

With `CC(=O)OCC(OC(C)=O)C1OCOC2COCOC21` (stereo unspecified) the T/C [2] was 108 % of control, the T/C [4] was 89 % of control and the T/C [6] was 101 % of control.

In the case of `COC(=O)C1C2C(C)=CC(O)(CC2(C)C)C1C(=O)OC` (stereo unspecified), the T/C [8] is reported as 95 % of control, the T/C [9] is reported as 95 % of control and the T/C [10] is reported as 101 % of control.

`CCCCCCOc1ccc(CC(N)C(=O)O)cc1N(CCCl)CCCl` (stereo unspecified) was tested, and the T/C (dose: 2.5 mg/kg/injection, schedule: Q01DX009 (ip), vehicle: carboxymethylcellulose (CMC)) was 119 % of control, the T/C (dose: 4.4 mg/kg/injection, schedule: Q01DX001 (ip), vehicle: carboxymethylcellulose (CMC)) was 109 % of control and the T/C (dose: 6.6 mg/kg/injection, schedule: Q01DX001 (ip), vehicle: carboxymethylcellulose (CMC)) was 115 % of control. The T/C (dose: 8.5 mg/kg/injection, schedule: Q01DX001 (ip), vehicle: carboxymethylcellulose (CMC)) was 117 % of control, the T/C (dose: 10.0 mg/kg/injection, schedule: Q01DX001 (ip), vehicle: carboxymethylcellulose (CMC)) was 110 % of control and the T/C (dose: 13.0 mg/kg/injection, schedule: Q01DX001 (ip), vehicle: carboxymethylcellulose (CMC)) was 117 % of control. For the same molecule, the T/C (dose: 15.0 mg/kg/injection, schedule: Q01DX001 (ip), vehicle: carboxymethylcellulose (CMC)) was 116 % of control, the T/C (dose: 15.0 mg/kg/injection, schedule: Q01DX009 (ip), vehicle: carboxymethylcellulose (CMC)) was 152 % of control and the T/C (dose: 20.0 mg/kg/injection, schedule: Q01DX001 (ip), vehicle: carboxymethylcellulose (CMC)) was 122 % of control. The T/C (dose: 22.5 mg/kg/injection, schedule: Q01DX009 (ip), vehicle: carboxymethylcellulose (CMC)) was 113 % of control and the T/C (dose: 30.0 mg/kg/injection, schedule: Q01DX001 (ip), vehicle: carboxymethylcellulose (CMC)) was 122 % of control.

With `CCN(CCCl)c1ccc(/C=C/C2=[N+](C)c3ccccc3C2(C)C)c(C)c1` the T/C (dose: 0.78 mg/kg/injection, schedule: Q01DX009 (ip), vehicle: saline) was 106 % of control, the T/C (dose: 1.56 mg/kg/injection, schedule: Q01DX009 (ip), vehicle: saline) was 97 % of control and the T/C (dose: 3.13 mg/kg/injection, schedule: Q01DX009 (ip), vehicle: saline) was 112 % of control. The T/C (dose: 6.25 mg/kg/injection, schedule: Q04DX003 (ip), vehicle: saline) was 96 % of control and the T/C [1] was 86 % of control.

In the case of `Cc1cccc(C)c1NC(=O)c1ccccc1Cl`, the T/C [11] is reported as 104 % of control, the T/C (dose: 200.0 mg/kg/injection, schedule: Q01DX009 (ip), vehicle: saline with Tween-80) is reported as 97 % of control and the T/C [12] is reported as 104 % of control.

With `CS(=O)(=O)c1ccc(F)c([N+](=O)[O-])c1` the T/C [13] was 92 % of control, the T/C [14] was 92 % of control and the T/C [3] was 95 % of control.

For `COc1ccc(/C=N/N2CCN(/N=C/c3ccc(OC)cc3)CC2)cc1`, the T/C [15] was 88 % of control, the T/C [16] was 88 % of control and the T/C [17] was 93 % of control.

`COc1ccc(Cl)cc1NC(=O)NC(Cc1ccccc1)c1ccccc1` (stereo unspecified) was tested, and the T/C [18] was 102 % of control, the T/C [3] was 101 % of control and the T/C [19] was 100 % of control. For the same molecule, the T/C [5] was 103 % of control, the T/C [20] was 105 % of control and the T/C [7] was 103 % of control.

With `CCCCCCCCC(=O)N(CC(C)C)CC(C)C` the T/C [15] was 93 % of control, the T/C [21] was 101 % of control and the T/C (dose: 100.0 mg/kg/injection, schedule: Q04DX002 (ip), vehicle: carboxymethylcellulose (CMC)) was 94 % of control. For the same molecule, the T/C (dose: 100.0 mg/kg/injection, schedule: Q04DX003 (ip), vehicle: carboxymethylcellulose (CMC)) was 101 % of control, the T/C [16] was 91 % of control and the T/C [22] was 101 % of control and 106 % of control. For the same molecule, the T/C (dose: 200.0 mg/kg/injection, schedule: Q04DX002 (ip), vehicle: carboxymethylcellulose (CMC)) was 102 % of control, the T/C (dose: 200.0 mg/kg/injection, schedule: Q04DX003 (ip), vehicle: carboxymethylcellulose (CMC)) was 101 % of control and the T/C [17] was 93 % of control. For the same molecule, the T/C (dose: 400.0 mg/kg/injection, schedule: Q04DX002 (ip), vehicle: carboxymethylcellulose (CMC)) was 97 % of control and the T/C (dose: 400.0 mg/kg/injection, schedule: Q04DX003 (ip), vehicle: carboxymethylcellulose (CMC)) was 104 % of control.

For `c1cc[c]([Sn]([CH2]Cc2ccncc2)([c]2ccccc2)[c]2ccccc2)cc1`, the T/C (dose: 100.0 mg/kg/injection, schedule: Q04DX002 (sc), vehicle: olive oil, sesame oil, peanut oil) was 110 % of control, the T/C (dose: 200.0 mg/kg/injection, schedule: Q04DX002 (sc), vehicle: olive oil, sesame oil, peanut oil) was 100 % of control and the T/C (dose: 400.0 mg/kg/injection, schedule: Q04DX002 (sc), vehicle: olive oil, sesame oil, peanut oil) was 103 % of control.

With `CCN(C(=S)Nc1cccc2ccccc12)c1ccccc1` the T/C [18] was 100 % of control, the T/C [19] was 96 % of control and the T/C [20] was 92 % of control.

For `CS(=O)(=O)N1C=CC=CC=C1`, the T/C (dose: 12.5 mg/kg/injection, schedule: Q01DX009 (ip), vehicle: Klucel (hydroxypropylcellulose) (HPC)) was 91 % of control, the T/C (dose: 12.5 mg/kg/injection, schedule: Q04DX003 (ip), vehicle: Klucel (hydroxypropylcellulose) (HPC)) was 96 % of control and the T/C [23] was 95 % of control. The T/C [13] was 98 % of control, the T/C [24] was 95 % of control and the T/C [14] was 105 % of control.

`O=C(NCc1ccco1)NCc1ccco1` was tested, and the T/C [23] was 91 % of control, the T/C [13] was 103 % of control and the T/C [24] was 96 % of control. For the same molecule, the T/C [14] was 97 % of control and the T/C [3] was 98 % of control and 101 % of control.

For `CC(=O)Nc1cccc(OC(=O)Nc2ccc(F)c(Cl)c2)c1`, the T/C (dose: 100.0 mg/kg/injection, schedule: Q04DX002 (ip), vehicle: Klucel (hydroxypropylcellulose) (HPC)) was 96 % of control, the T/C (dose: 200.0 mg/kg/injection, schedule: Q04DX002 (ip), vehicle: Klucel (hydroxypropylcellulose) (HPC)) was 89 % of control and the T/C (dose: 400.0 mg/kg/injection, schedule: Q04DX002 (ip), vehicle: Klucel (hydroxypropylcellulose) (HPC)) was 121 % of control.

In the case of `O=[N+]([O-])c1nccn1C1OC(CO)C(O)C1O` (stereo unspecified), the T/C (dose: 50.0 mg/kg/injection, schedule: Q01DX001 (ip), vehicle: saline) is reported as 98 % of control, the T/C [8] is reported as 98 % of control and the T/C [9] is reported as 102 % of control. For the same molecule, the T/C [10] was 102 % of control.

`Cc1ccc2c(c1)CC=CO2` was tested, and the T/C (dose: 50.0 mg/kg/injection, schedule: Q01DX009 (ip), vehicle: carboxymethylcellulose (CMC)) was 91 % of control, the T/C [15] was 96 % of control and the T/C [21] was 94 % of control and 97 % of control. For the same molecule, the T/C [11] was 88 % of control, the T/C (dose: 100.0 mg/kg/injection, schedule: Q04DX003 (ip), vehicle: saline with Tween-80) was 101 % of control and the T/C [16] was 96 % of control. For the same molecule, the T/C [22] was 94 % of control and 95 % of control, the T/C (dose: 200.0 mg/kg/injection, schedule: Q04DX003 (ip), vehicle: saline with Tween-80) was 97 % of control and the T/C [17] was 100 % of control. For the same molecule, the T/C (dose: 400.0 mg/kg/injection, schedule: Q01DX009 (ip), vehicle: carboxymethylcellulose (CMC)) was 96 % of control, the T/C [12] was 92 % of control and the T/C (dose: 400.0 mg/kg/injection, schedule: Q04DX003 (ip), vehicle: saline with Tween-80) was 98 % of control.
